Series [1] has as its system D-AMPH-induced hyperactivity. The experiment in a line: Inhibition of D-amphetamine-induced hyperactivity. It is filed as in vivo. As to conditions: rats, p.o.; D-AMPH 1 mg/kg i.p.; distance traveled over 2 h. On the procedure: Male Sprague–Dawley rats (200–250 g, N=4/treatment group) were habituated to Lucite locomotor activity chambers comprising an AccuScan activity monitoring system (AccuScan Instruments, Inc., Columbus, OH) were maintained in a quiet observation room kept under low light conditions. […] The rats were briefly removed from the activity chambers 60 min later to receive an injection of D-amphetamine hydrochloride (D-AMPH; 1 mg/kg in 1 ml/kg, i.p.). The animals were returned to the activity chambers, and locomotor activity was then recorded for 2 h using system software. Activity was quantitated as distance traveled (cm) over 2 h for each group. Inhibitory activity was calculated as the percent of total activity observed at each dose level of each drug versus animals receiving D-AMPH alone. An ID50 for inhibition of D-AMPH-induced hyperactivity was calculated for each compound.

Series [2] has as its system serine 40 (S40)-phosphorylated tyrosine hydroxylase. Kind of series: Striatal tyrosine hydroxylase S40 phosphorylation state (CNSProfile immunoblotting). Format: in vivo. As to conditions: mice, acute; ITI-007 3 mg/kg p.o., clozapine 5 i.p., aripiprazole 10 p.o., olanzapine 1 i.p., risperidone 3 p.o., haloperidol 1 i.p.; over 60 min; vs vehicle. Here is the method:
The effect of the selected compounds on the phosphorylation state of tyrosine hydroxylase (TH) was measured and quantitated as an indicator of the potential of each compound to perturb presynaptic dopamine synthesis in striatum. […] This technique preserves in vivo levels of brain protein phosphorylation ([Zhu et al. 2010]). […] Small aliquots of the homogenate were retained for protein determination by the bicinchoninic acid (BCA) protein assay method (Pierce Chemical Co., Rockford, IL). […] Immunoblotting was carried out using a phos-phorylation state-specific polyclonal antibody raised against […] (S40)-phosphorylated tyrosine hydroxylase (Chemicon, Temecula, CA) and a pan-TH monoclonal antibody for measuring the total protein levels (BD Biosciences, San Jose, CA). […] Antibody binding was detected and quantitated using a LiCor Odyssey infrared fluorescent detection system. Phosphorylation at each site detected by phospho-specific antibodies was quantified, normalized to total levels of the protein (non-phosphorylated), and expressed as percent±SEM of the level of phosphorylation in vehicle-treated control mice (N=6).
(In general: A western blot detects proteins with antibodies after separation by electrophoresis.)

Series [3] has as its system striatal dopamine metabolism. The experiment in a line: Striatal dopamine metabolism (HPLC-EC of DA, DOPAC, HVA). It is filed as in vivo, mice. As to conditions: for DOPAC/DA, chronic (21 day) dosing, mean / HVA/DA, chronic (21 day) dosing, mean: striatum 2 h after last dose; for DOPAC/DA, acute (2 h) dosing, mean / HVA/DA, acute (2 h) dosing, mean: striatum 2 h after dose. On the procedure:
Measurements of tissue dopamine levels were performed at CDC-NIOSH. […] Striatum was rapidly dissected from each mouse brain, weighed, and placed into Eppendorf tubes that were frozen in liquid nitrogen and stored at -80 °C. […] Tissues were homogenized in 100 μl of ice-cold 0.2 M perchloric acid containing 1 μM dihydroxybenzylamine (DHBA) as an internal standard and centrifuged at 10,000×g for 10 min at 4 °C. The supernatant was filtered through a 0.2 μm nitrocellulose membrane, and an aliquot (10 μl) was injected from a temperature-controlled (4 °C) automatic sample injector (Waters 717plus Autosampler) connected to a Waters 515 HPLC pump. Catecholamines were separated on a C18 reverse-phase column ([…]; Waters […] 25 cm×4.6 mm; 5 μm), electrochemically detected (Waters 464 Pulsed Electrochemical Detector; range 10 nA, potential +0.7 V), and analyzed using Millennium software. […] A flow rate of 1 ml/min was used. […] The recovery of each analyte was adjusted with respect to the internal standard and quantified from a standard curve. The levels of dopamine and its metabolites, DOPAC and HVA, were calculated from the AUC values for each (based on microgram per gram (μg/g) tissue wet weight) and expressed as a percent of the saline control.

For a further series, the system named is extracellular dopamine. Kind of series: In vivo microdialysis of dopamine and DOPAC in striatum and prefrontal cortex. As to conditions: rats. On the procedure: On the day of the experiment (24–48 h after surgery), the microdialysis probes of each animal were connected via the use of flexible PEEK tubing to a microperfusion pump (Harvard Apparatus, PHD 2000 Holliston, MA). Artificial CSF, composed of 147 mM NaCl, 3 mM KCl, 1.2 mM CaCl2, and 1.2 mM MgCl2 was used to perfuse the probes (1.5 μl/min) beginning at 75 min prior to drug treatment. Baseline dialysate collection was begun for all rats 60 min prior to drug administration (t=−60 min) such that a total of […] were collected prior to drug treatment (t=0). […] A control group of rats (N=9) received only the 0.5 % methylcellulose vehicle solution, delivered orally (p.o.). All drug solutions were delivered in a volume of 1 ml/kg of body weight. Every 20 min for the following 3 h, dialysate was collected from both brain regions of each rat. Dialysates were collected into mini-vials containing 7.5 μl of 0.02 M formic acid using an automated fraction collector Univentor 820, Malta. Tubes containing dialysate samples were then frozen at −80 °C until analyzed by HPLC for levels of dopamine and the dopamine metabolite, DOPAC. […] Coronal sections were prepared of each rat brain to verify the position of the dialysis collection probes. Dopamine and DOPAC concentrations were determined in each sample using HPLC separation and electrochemical detection. An aliquot (20 μl) of each dialysate sample was injected onto the HPLC column by means of a refrigerated microsampler system, consisting of a syringe pump (Gilson, model 402), a multi-column injector (Gilson, model 233 XL), and a temperature regulator (Gilson, model 832). The chromatographic separation was performed on a reverse-phase 150 ×2.1 mm (3 μm) C18 Thermo BDS Hypersil column (Keystone Scientific). […] The mobile phase was run at a flow rate of 0.35 ml/min using an HPLC pump (Shimadzu, model LC-10AD vp). Dopamine and DOPAC were electrochemically detected using a potentiostat (Antec Leyden, model Intro) fitted with a glassy carbon electrode set a +500 mV versus Ag/AgCl (Antec, Leyden). Data were analyzed using Chromatography Data System software (Shimadzu, Class-VP, Japan) using an external standard method to quantify concentrations of dopamine and DOPAC. […] Drug effects were expressed as percentages of basal level (mean±SEM) within the same subject. Statistical analysis was performed using Sigmastat for Windows (SPSS Corporation). Drug effects were compared with baseline and vehicle control using a two-way ANOVA for repeated measurements followed by the Newman–Keuls post hoc test. […] For all tests, the level of statistical significance was set at p<0.05.

The subject of series [4] is GluN2B phosphorylated at tyrosine (Y) 1472. The experiment in a line: GluN2B Y1472 phosphorylation state in nucleus accumbens. The following applies: mice, 1 mg/kg p.o., 120 min after administration. Format: in vivo. On the procedure: Brains were rapidly removed from the skull. […] Brain tissue was prepared for SDS-PAGE as described above, and protein homogenates (15 μg) were separated on 3-7 % gradient gels, and proteins transferred to nitrocellulose membranes. Portions of each membrane were immunoblotted for GluN2B phosphorylated at […] (rabbit polyclonal) and total GluN2B (mouse monoclonal) (Thermo Fisher Scientific, Rockford, IL).

For another series, the system named is forelimb catalepsy. The experiment in a line: Forelimb catalepsy, bar grip test. As to conditions: mice, 3 mg/kg p.o.; each time point (120-360 min); vs vehicle.
Where [5] appears, read: 1 mg/kg p.o. once daily 21 days.
Where [6] appears, read: 3 mg/kg p.o. once daily 21 days.
The mark [7] stands for this setting: 30 mg/kg p.o. once daily 21 days.
The mark [8] stands for this setting: 10 mg/kg p.o. once daily 21 days.

Marks after values point to notes of the source that are not given here.

Description for forelimb catalepsy: Forelimb catalepsy was measured using the bar grip test. Mice were placed in a Lucite mouse cage outfitted with a 3-mm diameter wooden rod suspended 4 cm from the floor of the cage. During testing, the mouse was allowed to grip the bar firmly with hind legs placed firmly on the floor of the cage. The mouse was required to maintain this posture for at least 10 s for a valid test session. Catalepsy was then quantitated by recording the latency (in seconds) to step both front paws down to the floor of the cage up to a maximum time of 120 s. If the mouse stepped off the bar immediately (less than 10 s), another attempt was made up to a maximum of ten attempts. The longest duration of immobility was recorded if none of the ten attempts were beyond 10 s. Catalepsy was measured for each mouse at 2, 3, 4, and 6 h after drug administration. Mean forelimb catalepsy time (in seconds) was calculated across each group and time point. Data were analyzed using ANOVA with Newman–Keuls post hoc test.

For the compound `O=C(CCCN1CCC(O)(c2ccc(Cl)cc2)CC1)c1ccc(F)cc1` [Haloperidol], the “ID50, inhibition of D-AMPH-induced hyperactivity” value (“ID50, inhibition” for short) in series [1] turned out to be 0.04 mg/kg. For the same compound, in series [2], the “Effect on TH phosphorylation at S40 in striatum” value (“Effect on TH phosphorylation” for short) was “significantly increase”. For the same compound, the “DOPAC/DA, chronic (21 day) dosing, mean” value in series [3] (setting [5]) was 18.26 ^*, ^**, ^***; in series [3] (setting [6]), 17.00 ^*, ^**, ^***. Besides, the “HVA/DA, chronic (21 day) dosing, mean” value in series [3] (setting [5]) is 29.23 ^*, ^**, ^***; in series [3] (setting [6]), 24.15 ^*, ^**, ^***. Further, the “DOPAC/DA, acute (2 h) dosing, mean” value is given as 19.69 ^*, ^**, ^*** in series [3] (1 mg/kg p.o. once) and 22.68 ^*, ^**, ^*** in series [3] (3 mg/kg p.o. once). The “HVA/DA, acute (2 h) dosing, mean” value in series [3] (1 mg/kg p.o. once) was 31.04 ^*, ^**, ^***; in series [3] (3 mg/kg p.o. once) it was 28.14 ^*, ^**, ^***. In the series with extracellular dopamine (0.3 mg/kg s.c., p<0.001 vs vehicle), the “DA and DOPAC efflux in striatum” value is given as “significant increase”. Further, in the series on extracellular dopamine (0.3 mg/kg s.c., p<0.01 (DA), p<0.001 (DOPAC) vs vehicle), the “DA and DOPAC levels in mPFC” value is “elevated”. For the same compound, the “GluN2B phosphorylation at Y1472 in nucleus accumbens” value in series [4] was 177±28 % of control. In the series on forelimb catalepsy, the “Forelimb catalepsy, bar grip test” value is given as “profound forelimb catalepsy”.
Regarding `O=C1CCc2ccc(OCCCCN3CCN(c4cccc(Cl)c4Cl)CC3)cc2N1` [Aripiprazole], in series [1], the “ID50, inhibition” value was found to be 4.65 mg/kg. For the same compound, the “Effect on TH phosphorylation” value in series [2] is listed as “did not significantly affect”. Besides, in series [3] (setting [6]), the “DOPAC/DA, chronic (21 day) dosing, mean” value is on record as 8.27 ^*, ^** and the “HVA/DA, chronic (21 day) dosing, mean” value is recorded as 12.14 ^*. In series [3] (3 mg/kg p.o. once), the “DOPAC/DA, acute (2 h) dosing, mean” value is recorded as 8.57 and the “HVA/DA, acute (2 h) dosing, mean” value stood at 12.63. In addition, in series [3] (setting [7]), the “DOPAC/DA, chronic (21 day) dosing, mean” value is given as 7.25 ^*, ^** and the “HVA/DA, chronic (21 day) dosing, mean” value was 12.32 ^*. Moreover, in series [3] (30 mg/kg p.o. once), the “DOPAC/DA, acute (2 h) dosing, mean” value was 11.89 and the “HVA/DA, acute (2 h) dosing, mean” value is 11.20. Further, the “DA or DOPAC efflux in striatum or mPFC” value with extracellular dopamine (30 mg/kg p.o.) is recorded as “did not significantly affect”.
Turning to `CN1CCN(C2=Nc3cc(Cl)ccc3Nc3ccccc32)CC1` [Clozapine], the “Effect on TH phosphorylation” value in series [2] is given as “did not significantly affect”.
As to `Cc1cc2c(s1)Nc1ccccc1N=C2N1CCN(C)CC1` [Olanzapine], in series [2], the “Effect on TH phosphorylation” value was “significantly increase”.
For `Cc1nc2n(c(=O)c1CCN1CCC(c3noc4cc(F)ccc34)CC1)CCCC2` [Risperidone], the “ID50, inhibition” value in series [1] turned out to be 0.33 mg/kg. Further, the “Effect on TH phosphorylation” value in series [2] is “significantly increase”. In series [3] (setting [5]), the “DOPAC/DA, chronic (21 day) dosing, mean” value was 16.35 ^*, ^**, ^*** and the “HVA/DA, chronic (21 day) dosing, mean” value is 29.37 ^*, ^**, ^***. In addition, in series [3] (1 mg/kg p.o. once), the “DOPAC/DA, acute (2 h) dosing, mean” value is given as 14.35 ^*, ^**, ^*** and the “HVA/DA, acute (2 h) dosing, mean” value was 30.71 ^*, ^**, ^***. Further, in series [3] (setting [8]), the “DOPAC/DA, chronic (21 day) dosing, mean” value is on record as 25.12 ^*, ^**, ^*** and the “HVA/DA, chronic (21 day) dosing, mean” value is 36.39 ^*, ^**, ^***. In series [3] (10 mg/kg p.o. once), the “DOPAC/DA, acute (2 h) dosing, mean” value is 30.98 ^*, ^**, ^*** and the “HVA/DA, acute (2 h) dosing, mean” value is 23.06 ^*, ^**, ^***.

Values taken from publication PMC4302236, “Functional profile of a novel modulator of serotonin, dopamine, and glutamate neurotransmission” (Psychopharmacology, 2014).
